For 16 molecules, IC50 results are on record in patent publication US8017612B2, “Piperazine compound and use thereof as a HCV polymerase inhibitor” (priority 2006, dated 2011).

For experiment [1], the target named is T1, HCV polymerase (NS5B) type 1b (Hepatitis C virus genotype 1b, UniProt P26663).
T1 construct: a region encoding NS5B (J Virol 1991 March, 65(3), 1105-13, 544 amino acids after deletion of 47 amino acids on the C-terminal); 6xHis (C); made in house; host or cells: Escherichia coli
Description: Assay of enzyme (HCV polymerase) inhibitory activity, type 1b enzyme. Type of experiment: biochemical, HCV BK strain (type 1b). Conditions: HCV polymerase inhibitory activity IC50, 1b, type 1b enzyme. Summed up: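 NS5B from HCV BK strain (type 1b), C-terminal 47 aa deleted, C-terminal His6-tagged, E. coli-expressed, 0.5 μg/ml, with ~450 nt substrate RNA carrying the 3′ UTR (polyU, 3′X) at 5 μg/ml. Incubation 60 min at 25 °C with 50 μM ATP/GTP/CTP, 2 μM UTP plus [3H]UTP, pH 7.5 Tris.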

For experiment [2], the target named is T2, HCV polymerase (NS5B) type 1a (Hepatitis C virus genotype 1a, UniProt P26664).
T2 construct: made in house; host or cells: Escherichia coli (by the 'similar method' of the 1b enzyme)
Description: Assay of enzyme (HCV polymerase) inhibitory activity, type 1a enzyme. Type of experiment: biochemical, HCV type 1a (cloned from the blood of patients). The note with it: HCV polymerase inhibitory activity IC50, 1a, type 1a enzyme. Summed up: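 Patient-derived type 1a NS5B (C-terminal 47-aa deletion, His-tagged, E. coli-expressed) at 1.5 μg/ml was reacted with 5 μg/ml 3′UTR-containing substrate RNA, 50 μM ATP/GTP/CTP, 2 μM UTP plus [3H]UTP, pH 7.5, 25° C for 60 min. TCA-precipitated RNA radioactivity was counted; IC50 from ± compound.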

pIC50: −log10 of the molar value. Bounds are passed on as bounds.

What is called pIC50 is the negative decadic logarithm of the IC50, by convention in mol/L. A lower pIC50 goes with a large IC50. As to `O=C(NCc1ccc(OC(F)(F)F)c(F)c1)[C@H]1CN(c2nc3nc(C4CC4)ncc3s2)CCN1S(=O)(=O)c1ccc(C(F)(F)F)cc1` [Example 1101, (R)-4-(5-cyclopropyl-thiazolo[4,5-d]pyrimidin-2-yl)-1-(4-trifluoromethyl-benzenesulfonyl)-piperazine-2-carboxylic acid 3-fluoro-4-trifluoromethoxy-benzylamide], the pIC50 in experiment [1] and in experiment [2] was greater than 7.00 throughout.

`O=C(NCc1ccc(OC(F)(F)F)c(F)c1)[C@H]1CN(c2nc3nc(C4CC4)ncc3s2)CCN1S(=O)(=O)c1ccc(OC(F)(F)F)cc1` [Example 1102, (R)-4-(5-cyclopropyl-thiazolo[4,5-d]pyrimidin-2-yl)-1-(4-trifluoromethoxy-benzenesulfonyl)-piperazine-2-carboxylic acid 3-fluoro-4-trifluoromethoxy-benzylamide]: the pIC50 in experiment [1] and in experiment [2] was greater than 7.00 in each case.

In the case of `CC(=O)N1CCN(S(=O)(=O)c2ccc(OC(F)(F)F)cc2)[C@@H](C(=O)NCc2ccc(OC(F)(F)F)c(F)c2)C1` [Example 1103, (R)-4-acetyl-1-(4-trifluoromethoxy-benzenesulfonyl)-piperazine-2-carboxylic acid 3-fluoro-4-trifluoromethoxy-benzylamide], the pIC50 in experiment [1] and in experiment [2] was 6.00 to 7.00 each time.

In the case of `O=C(O)c1cncc2sc(N3CCN(S(=O)(=O)c4ccc(OC(F)(F)F)cc4)[C@@H](C(=O)NCc4ccc(OC(F)(F)F)cc4)C3)nc12` [Example 1104, 2-[(R)-4-(4-trifluoromethoxy-benzenesulfonyl)-3-(4-trifluoromethoxy-benzylcarbamoyl)-piperazin-1-yl]-thiazolo[5,4-c]pyridine-7-carboxylic acid], the pIC50 in experiment [1] and in experiment [2] was greater than 7.00 throughout.

In the case of `O=C(NCc1ccc(OC(F)(F)F)cc1)[C@H]1CN(c2nn3c(CO)cc(=O)nc3s2)CCN1S(=O)(=O)c1ccc(OC(F)(F)F)cc1` [Example 1105], the pIC50 in experiment [1] was greater than 7.00; in experiment [2] it was 6.00 to 7.00.

`O=C(O)Cn1ncc2sc(N3CCN(S(=O)(=O)c4ccc(OC(F)(F)F)cc4)[C@@H](C(=O)NCc4ccc(OC(F)(F)F)cc4)C3)nc2c1=O` [Example 1106, {4-oxo-2-[(R)-4-(4-trifluoromethoxy-benzenesulfonyl)-3-(4-trifluoromethoxy-benzylcarbamoyl)-piperazin-1-yl]-4H-thiazolo[4,5-d]pyridazin-5-yl}-acetic acid]: the pIC50 in experiment [1] and in experiment [2] was greater than 7.00 in each case.

For the molecule `O=C(NCc1ccc(OC(F)(F)F)cc1)[C@H]1CN(c2nc3nc(C4CC4)[nH]c(=O)c3s2)CCN1S(=O)(=O)c1ccc(C(F)(F)F)cc1` [Example 1107, (R)-4-(5-cyclopropyl-7-oxo-6,7-dihydro-thiazolo[4,5-d]pyrimidin-2-yl)-1-(4-trifluoromethyl-benzenesulfonyl)-piperazine-2-carboxylic acid 4-trifluoromethoxy-benzylamide], the pIC50 in experiment [1] is greater than 7.00; in experiment [2], 6.00 to 7.00.

Consider `O=C(NCc1ccc(OC(F)(F)F)cc1)[C@H]1CN(c2nc3nc(C4CC4)[nH]c(=O)c3s2)CCN1S(=O)(=O)c1ccc(OC(F)(F)F)cc1` [Example 1108, (R)-4-(5-cyclopropyl-7-oxo-6,7-dihydro-thiazolo[4,5-d]pyrimidin-2-yl)-1-(4-trifluoromethoxy-benzenesulfonyl)-piperazine-2-carboxylic acid 4-trifluoromethoxy-benzylamide], for which the pIC50 in experiment [1] was greater than 7.00; in experiment [2] it was 6.00 to 7.00.

In the case of `O=C(O)c1cncc2sc(N3CCN(S(=O)(=O)c4ccc(OC(F)(F)F)cc4)[C@@H](C(=O)NCc4ccc(OC(F)F)c(F)c4)C3)nc12` [Example 1109, 2-[(R)-3-(4-difluoromethoxy-3-fluoro-benzylcarbamoyl)-4-(4-trifluoromethoxy-benzenesulfonyl)-piperazin-1-yl]-thiazolo[5,4-c]pyridine-7-carboxylic acid], the pIC50 in experiment [1] and in experiment [2] was greater than 7.00 each time.

As for `O=C(NCc1ccc(OC(F)(F)F)cc1)[C@H]1CN(c2nc3nc(C4CC4)ncc3s2)CCN1S(=O)(=O)c1ccc(OC(F)(F)F)cc1F` [Example 1110, (R)-4-(5-cyclopropyl-thiazolo[4,5-d]pyrimidin-2-yl)-1-(2-fluoro-4-trifluoromethoxy-benzenesulfonyl)-piperazine-2-carboxylic acid 4-trifluoromethoxy-benzylamide], the pIC50 in experiment [1] and in experiment [2] was greater than 7.00 in each case.

With `O=C(O)c1cnc(N2CCN(S(=O)(=O)c3ccc(OC(F)(F)F)cc3)[C@@H](C(=O)NCc3ccc(OC(F)F)c(F)c3)C2)cn1` [Example 1111, (R)-3-(4-difluoromethoxy-3-fluoro-benzylcarbamoyl)-4-(4-trifluoromethoxy-benzenesulfonyl)-3,4,5,6-tetrahydro-2H-[1,2′]bipyrazinyl-5′-carboxylic acid], the pIC50 in experiment [1] and in experiment [2] was greater than 7.00 in each case.

As to `O=C(O)CCn1ncc2sc(N3CCN(S(=O)(=O)c4ccc(OC(F)(F)F)cc4)[C@@H](C(=O)NCc4ccc(OC(F)(F)F)cc4)C3)nc2c1=O` [Example 1112, 3-{4-oxo-2-[(R)-4-(4-trifluoromethoxy-benzenesulfonyl)-3-(4-trifluoromethoxy-benzylcarbamoyl)-piperazin-1-yl]-4H-thiazolo[4,5-d]pyridazin-5-yl}propionic acid], the pIC50 in experiment [1] and in experiment [2] was greater than 7.00 throughout.

As to `O=C(NCc1ccc(OC(F)F)c(F)c1)[C@H]1CN(c2nc3nc(C4CC4)[nH]c(=O)c3s2)CCN1S(=O)(=O)c1ccc(OC(F)(F)F)cc1` [Example 1113, (R)-4-(5-cyclopropyl-7-oxo-6,7-dihydro-thiazolo[4,5-d]pyrimidin-2-yl)-1-(4-trifluoromethoxy-benzenesulfonyl)-piperazine-2-carboxylic acid 4-difluoromethoxy-3-fluoro-benzylamide], the pIC50 in experiment [1] and in experiment [2] was greater than 7.00 in each case.

Regarding `O=C(NCc1ccc(OC(F)F)c(F)c1)[C@H]1CN(c2nc3nc(C4CC4)[nH]c(=O)c3s2)CCN1S(=O)(=O)c1ccc(C(F)(F)F)cc1` [Example 1114, (R)-4-(5-cyclopropyl-7-oxo-6,7-dihydro-thiazolo[4,5-d]pyrimidin-2-yl)-1-(4-trifluoromethyl-benzenesulfonyl)-piperazine-2-carboxylic acid 4-difluoromethoxy-3-fluoro-benzylamide], the pIC50 in experiment [1] and in experiment [2] was greater than 7.00 throughout.

As to `CC(=O)N1CCN(S(=O)(=O)c2ccc(C(C)C)cc2)C(C(=O)NCc2ccc(C(F)(F)F)cc2)C1` (centres unmarked) [Example 1115, 4-acetyl-1-(4-isopropyl-benzenesulfonyl)-piperazine-2-carboxylic acid 4-trifluoromethyl-benzylamide], the values for the pIC50 in experiment [1] and in experiment [2] were less than 6.00 and 6.00 to 7.00, respectively.

`CC(=O)N1CCN(S(=O)(=O)c2ccc(C(C)C)cc2)[C@@H](C(=O)NCc2ccc(C(F)(F)F)cc2)C1` [Example 1116, (R)-4-acetyl-1-(4-isopropyl-benzenesulfonyl)-piperazine-2-carboxylic acid 4-trifluoromethyl-benzylamide]: the pIC50 in experiment [1] and in experiment [2] was 6.00 to 7.00 each time.
